Results published in patent US9084828B2, “Oligomer-protein tyrosine kinase inhibitor conjugates” (Nektar Therapeutics, priority 2009, dated 2015).

Tests used:
Assay type in all cases: biochemical
SRC = SRC (Homo sapiens, UniProt P12931); test: Activity against various protein tyrosine kinases: SRC
AKT3 = AKT3 (Homo sapiens, UniProt Q9Y243); test: Activity against various protein tyrosine kinases: AKT3
PKD2 = biological target: T1, PKD2 (Homo sapiens, UniProt Q9BZL6); test: Activity against various protein tyrosine kinases: PKD2
T1 sequence (Q9BZL6 1-878): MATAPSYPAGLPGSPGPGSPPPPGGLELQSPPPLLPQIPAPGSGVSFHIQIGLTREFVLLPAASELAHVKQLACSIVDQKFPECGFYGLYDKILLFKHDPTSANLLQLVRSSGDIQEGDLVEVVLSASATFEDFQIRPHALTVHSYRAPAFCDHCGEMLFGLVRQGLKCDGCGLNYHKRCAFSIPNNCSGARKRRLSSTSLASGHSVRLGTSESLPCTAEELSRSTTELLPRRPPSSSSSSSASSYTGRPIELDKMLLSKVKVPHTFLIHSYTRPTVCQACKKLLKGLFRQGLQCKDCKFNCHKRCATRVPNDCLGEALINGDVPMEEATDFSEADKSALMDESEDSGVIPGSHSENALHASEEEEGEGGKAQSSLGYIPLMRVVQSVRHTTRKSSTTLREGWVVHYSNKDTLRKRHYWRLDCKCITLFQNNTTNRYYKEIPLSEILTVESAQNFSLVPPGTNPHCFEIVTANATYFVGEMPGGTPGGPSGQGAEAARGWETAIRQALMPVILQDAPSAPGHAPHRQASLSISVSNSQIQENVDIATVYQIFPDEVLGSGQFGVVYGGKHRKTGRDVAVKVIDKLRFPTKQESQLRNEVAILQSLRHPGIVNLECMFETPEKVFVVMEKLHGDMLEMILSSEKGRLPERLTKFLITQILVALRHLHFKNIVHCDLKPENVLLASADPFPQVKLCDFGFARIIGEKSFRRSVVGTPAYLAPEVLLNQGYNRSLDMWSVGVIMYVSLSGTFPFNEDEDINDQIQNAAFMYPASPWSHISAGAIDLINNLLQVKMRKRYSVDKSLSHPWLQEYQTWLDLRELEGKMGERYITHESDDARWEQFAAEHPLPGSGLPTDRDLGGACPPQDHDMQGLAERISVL

CHK1 = biological target: T2, CHK1 (Homo sapiens, UniProt O14757); test: Activity against various protein tyrosine kinases: CHK1
T2 sequence (O14757 1-476): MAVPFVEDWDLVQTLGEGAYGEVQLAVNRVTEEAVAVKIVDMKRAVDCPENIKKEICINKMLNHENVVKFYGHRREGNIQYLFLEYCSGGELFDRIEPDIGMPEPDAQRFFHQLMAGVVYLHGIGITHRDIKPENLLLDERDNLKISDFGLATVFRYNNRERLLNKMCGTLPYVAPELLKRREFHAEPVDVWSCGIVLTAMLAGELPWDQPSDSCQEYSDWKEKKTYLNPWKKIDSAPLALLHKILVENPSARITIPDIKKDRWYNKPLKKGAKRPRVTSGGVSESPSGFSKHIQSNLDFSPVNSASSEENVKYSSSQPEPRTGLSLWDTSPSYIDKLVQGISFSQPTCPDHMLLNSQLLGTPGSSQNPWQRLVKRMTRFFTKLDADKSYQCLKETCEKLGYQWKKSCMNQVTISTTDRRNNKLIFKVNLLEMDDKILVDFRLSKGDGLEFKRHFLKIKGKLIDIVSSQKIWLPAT

p38a = p38a (Homo sapiens, UniProt Q16539); test: Activity against various protein tyrosine kinases: p38a
Chain of p38a (Q16539 whole entry): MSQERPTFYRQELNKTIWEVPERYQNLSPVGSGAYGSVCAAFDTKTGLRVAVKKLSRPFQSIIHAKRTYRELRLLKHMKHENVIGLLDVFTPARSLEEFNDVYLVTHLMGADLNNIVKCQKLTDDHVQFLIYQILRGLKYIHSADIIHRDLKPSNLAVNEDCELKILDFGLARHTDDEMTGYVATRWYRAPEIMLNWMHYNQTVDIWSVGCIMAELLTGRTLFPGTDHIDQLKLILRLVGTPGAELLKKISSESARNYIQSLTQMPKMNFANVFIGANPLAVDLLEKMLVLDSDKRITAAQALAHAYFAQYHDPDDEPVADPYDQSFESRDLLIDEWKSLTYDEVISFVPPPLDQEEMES

EPHA2 = EPHA2 (Homo sapiens, UniProt P29317); test: Activity against various protein tyrosine kinases: EPHA2
Chain of EPHA2 (P29317 24-976, species assumed): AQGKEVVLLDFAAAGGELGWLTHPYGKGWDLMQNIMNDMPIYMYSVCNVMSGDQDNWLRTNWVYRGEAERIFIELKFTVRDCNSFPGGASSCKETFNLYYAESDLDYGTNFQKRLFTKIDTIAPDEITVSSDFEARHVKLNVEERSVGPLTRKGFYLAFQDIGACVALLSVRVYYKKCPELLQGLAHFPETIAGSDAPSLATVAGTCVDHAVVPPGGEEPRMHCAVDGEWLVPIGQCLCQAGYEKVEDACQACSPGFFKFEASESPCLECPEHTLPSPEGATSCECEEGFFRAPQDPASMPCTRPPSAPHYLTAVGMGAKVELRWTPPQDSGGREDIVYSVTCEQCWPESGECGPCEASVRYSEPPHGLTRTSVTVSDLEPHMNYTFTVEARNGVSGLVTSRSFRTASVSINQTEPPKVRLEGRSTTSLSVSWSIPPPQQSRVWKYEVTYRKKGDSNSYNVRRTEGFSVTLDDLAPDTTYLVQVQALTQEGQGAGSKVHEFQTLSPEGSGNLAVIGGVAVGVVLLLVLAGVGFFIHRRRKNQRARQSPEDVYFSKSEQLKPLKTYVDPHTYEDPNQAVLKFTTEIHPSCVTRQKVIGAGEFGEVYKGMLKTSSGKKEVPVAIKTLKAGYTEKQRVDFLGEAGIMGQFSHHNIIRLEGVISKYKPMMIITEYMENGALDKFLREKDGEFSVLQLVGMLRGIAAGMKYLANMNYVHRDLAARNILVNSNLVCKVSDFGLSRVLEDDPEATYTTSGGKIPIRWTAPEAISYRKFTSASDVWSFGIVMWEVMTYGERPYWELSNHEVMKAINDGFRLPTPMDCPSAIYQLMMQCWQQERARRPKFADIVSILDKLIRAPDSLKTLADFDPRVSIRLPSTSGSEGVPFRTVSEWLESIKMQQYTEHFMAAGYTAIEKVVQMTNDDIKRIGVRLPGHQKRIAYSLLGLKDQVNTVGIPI

AKT1 = AKT1 (Homo sapiens, UniProt P31749); test: Activity against various protein tyrosine kinases: AKT1
Chain of AKT1 (P31749 whole entry, species assumed): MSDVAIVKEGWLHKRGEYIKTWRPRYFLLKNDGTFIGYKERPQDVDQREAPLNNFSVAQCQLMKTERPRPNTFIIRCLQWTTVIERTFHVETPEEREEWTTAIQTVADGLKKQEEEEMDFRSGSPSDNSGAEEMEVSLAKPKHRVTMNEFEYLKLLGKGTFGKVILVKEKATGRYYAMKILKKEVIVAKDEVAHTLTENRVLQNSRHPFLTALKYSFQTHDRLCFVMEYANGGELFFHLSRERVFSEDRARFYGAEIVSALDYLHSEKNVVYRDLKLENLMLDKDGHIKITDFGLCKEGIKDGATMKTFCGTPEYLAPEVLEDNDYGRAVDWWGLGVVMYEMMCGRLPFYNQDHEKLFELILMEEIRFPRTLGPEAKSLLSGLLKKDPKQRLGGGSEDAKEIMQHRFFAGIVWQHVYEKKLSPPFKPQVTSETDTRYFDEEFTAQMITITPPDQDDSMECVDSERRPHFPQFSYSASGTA

CaMKII (beta) = CaMKII (beta) (Homo sapiens, UniProt Q13554); test: Activity against various protein tyrosine kinases: CaMKII (beta)
CKIT = CKIT (Homo sapiens, UniProt P10721); test: Activity against various protein tyrosine kinases: CKIT
Chain of CKIT (P10721 26-976): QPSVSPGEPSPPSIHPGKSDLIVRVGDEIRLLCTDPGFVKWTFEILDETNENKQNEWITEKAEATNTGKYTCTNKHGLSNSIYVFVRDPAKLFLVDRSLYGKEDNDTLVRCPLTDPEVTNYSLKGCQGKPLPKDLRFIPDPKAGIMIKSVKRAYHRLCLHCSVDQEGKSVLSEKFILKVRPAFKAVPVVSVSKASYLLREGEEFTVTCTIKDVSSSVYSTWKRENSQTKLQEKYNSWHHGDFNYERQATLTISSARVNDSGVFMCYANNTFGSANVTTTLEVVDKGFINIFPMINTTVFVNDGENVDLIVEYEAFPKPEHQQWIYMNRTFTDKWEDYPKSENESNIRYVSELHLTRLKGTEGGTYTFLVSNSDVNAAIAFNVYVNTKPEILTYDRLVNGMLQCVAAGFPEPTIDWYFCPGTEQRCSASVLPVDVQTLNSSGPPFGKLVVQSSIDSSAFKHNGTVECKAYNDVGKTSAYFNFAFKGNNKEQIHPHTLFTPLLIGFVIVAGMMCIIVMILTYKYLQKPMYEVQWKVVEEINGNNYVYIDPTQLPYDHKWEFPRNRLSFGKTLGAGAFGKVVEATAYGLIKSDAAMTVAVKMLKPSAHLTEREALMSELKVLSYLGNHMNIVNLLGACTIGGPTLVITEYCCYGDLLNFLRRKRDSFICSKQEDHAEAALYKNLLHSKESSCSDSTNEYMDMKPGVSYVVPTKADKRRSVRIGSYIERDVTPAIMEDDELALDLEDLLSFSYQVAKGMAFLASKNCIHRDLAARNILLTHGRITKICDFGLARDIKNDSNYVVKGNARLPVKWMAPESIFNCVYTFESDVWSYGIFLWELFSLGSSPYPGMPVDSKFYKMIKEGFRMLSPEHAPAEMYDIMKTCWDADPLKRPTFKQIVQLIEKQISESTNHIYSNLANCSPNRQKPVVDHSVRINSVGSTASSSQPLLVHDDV

AurA = biological target: T3, AurA (Homo sapiens, UniProt O14965); test: Activity against various protein tyrosine kinases: AurA
T3 sequence (O14965 1-403): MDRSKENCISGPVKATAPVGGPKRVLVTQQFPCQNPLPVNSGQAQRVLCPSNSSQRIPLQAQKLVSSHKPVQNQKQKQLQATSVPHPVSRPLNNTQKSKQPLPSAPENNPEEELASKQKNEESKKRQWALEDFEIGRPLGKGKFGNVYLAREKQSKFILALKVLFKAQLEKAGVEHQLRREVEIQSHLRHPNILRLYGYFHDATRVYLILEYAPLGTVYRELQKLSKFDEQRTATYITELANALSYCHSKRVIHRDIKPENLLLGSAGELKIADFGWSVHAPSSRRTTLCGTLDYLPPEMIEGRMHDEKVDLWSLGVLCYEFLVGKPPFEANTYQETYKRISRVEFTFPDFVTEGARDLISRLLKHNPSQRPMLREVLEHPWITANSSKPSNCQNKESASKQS

CaMKII (gamma) = CaMKII (gamma) (Homo sapiens, UniProt Q13555); test: Activity against various protein tyrosine kinases: CaMKII (gamma)
MAPKAPK3 = MAPKAPK3 (Homo sapiens, UniProt Q16644); test: Activity against various protein tyrosine kinases: MAPKAPK3
Chain of MAPKAPK3 (Q16644 whole entry, species assumed): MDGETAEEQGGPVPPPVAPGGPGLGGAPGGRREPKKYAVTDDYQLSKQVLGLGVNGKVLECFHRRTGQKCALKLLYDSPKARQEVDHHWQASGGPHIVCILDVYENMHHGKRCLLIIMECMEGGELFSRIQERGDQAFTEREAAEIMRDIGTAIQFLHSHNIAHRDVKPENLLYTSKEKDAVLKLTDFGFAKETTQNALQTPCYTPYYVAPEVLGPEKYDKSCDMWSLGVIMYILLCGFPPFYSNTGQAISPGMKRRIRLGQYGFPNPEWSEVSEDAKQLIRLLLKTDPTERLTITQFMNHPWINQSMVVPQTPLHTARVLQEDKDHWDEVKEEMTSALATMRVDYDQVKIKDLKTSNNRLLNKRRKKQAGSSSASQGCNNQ

GSK3b = GSK3b (Homo sapiens, UniProt P49841); test: Activity against various protein tyrosine kinases: GSK3b
Chain of GSK3b (P49841 whole entry, species assumed): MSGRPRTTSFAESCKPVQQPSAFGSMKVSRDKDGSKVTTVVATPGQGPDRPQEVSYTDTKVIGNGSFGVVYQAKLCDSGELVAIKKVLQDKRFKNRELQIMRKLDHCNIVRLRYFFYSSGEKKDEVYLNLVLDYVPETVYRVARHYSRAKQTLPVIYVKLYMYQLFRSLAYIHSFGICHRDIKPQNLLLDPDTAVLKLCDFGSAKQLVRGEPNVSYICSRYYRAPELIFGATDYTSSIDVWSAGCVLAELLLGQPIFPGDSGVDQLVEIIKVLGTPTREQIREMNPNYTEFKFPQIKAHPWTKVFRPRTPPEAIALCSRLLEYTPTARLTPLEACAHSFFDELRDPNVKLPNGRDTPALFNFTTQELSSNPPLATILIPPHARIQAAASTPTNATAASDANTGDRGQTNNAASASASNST

Chain of AKT3 (Q9Y243 whole entry, species assumed): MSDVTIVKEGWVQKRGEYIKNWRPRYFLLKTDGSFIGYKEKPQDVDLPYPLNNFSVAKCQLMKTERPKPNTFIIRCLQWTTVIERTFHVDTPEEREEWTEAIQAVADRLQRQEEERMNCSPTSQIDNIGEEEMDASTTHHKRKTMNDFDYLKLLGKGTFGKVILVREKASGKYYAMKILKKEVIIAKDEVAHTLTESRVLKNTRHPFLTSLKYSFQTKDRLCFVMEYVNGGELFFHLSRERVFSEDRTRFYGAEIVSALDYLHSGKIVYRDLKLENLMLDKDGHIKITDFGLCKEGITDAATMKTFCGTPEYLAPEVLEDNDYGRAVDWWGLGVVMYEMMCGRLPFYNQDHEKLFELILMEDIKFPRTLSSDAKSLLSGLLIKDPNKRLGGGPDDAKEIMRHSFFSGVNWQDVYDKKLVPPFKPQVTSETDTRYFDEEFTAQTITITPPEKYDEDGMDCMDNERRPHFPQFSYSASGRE
Chain of SRC (P12931 whole entry, species assumed): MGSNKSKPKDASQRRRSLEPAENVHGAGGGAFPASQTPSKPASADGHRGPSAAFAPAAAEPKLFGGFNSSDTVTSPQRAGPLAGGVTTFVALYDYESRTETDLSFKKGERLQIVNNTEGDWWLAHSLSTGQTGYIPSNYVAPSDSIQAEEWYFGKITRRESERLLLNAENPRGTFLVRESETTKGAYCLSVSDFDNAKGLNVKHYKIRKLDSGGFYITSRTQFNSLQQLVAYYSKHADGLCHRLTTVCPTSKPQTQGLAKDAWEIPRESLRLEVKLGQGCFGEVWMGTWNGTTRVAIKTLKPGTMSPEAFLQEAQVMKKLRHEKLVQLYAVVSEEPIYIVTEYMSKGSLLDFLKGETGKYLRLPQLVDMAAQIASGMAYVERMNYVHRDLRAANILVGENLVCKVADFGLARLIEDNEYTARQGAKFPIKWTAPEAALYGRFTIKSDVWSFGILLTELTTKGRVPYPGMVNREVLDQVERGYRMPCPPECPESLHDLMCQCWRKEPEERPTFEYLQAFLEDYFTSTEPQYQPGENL

COCCOCCOCCOCCOCCOCCOCCNC(=O)OCCN1CCN(c2cc(Nc3ncc(C(=O)Nc4c(C)cccc4Cl)s3)nc(C)n2)CC1 [mPEG7-NHCOO-Dasatinib]
% Inhibition at 10 nM (SRC): 98% | % Inhibition at 1 μM (SRC): 98% | % Inhibition at 10 nM (AKT3): −3% | % Inhibition at 1 μM (AKT3): −2% | % Inhibition at 10 nM (PKD2): 3% | % Inhibition at 1 μM (PKD2): 4% | % Inhibition at 10 nM (CHK1): 10% | % Inhibition at 1 μM (CHK1): 8% | % Inhibition at 10 nM (p38a): 5% | % Inhibition at 1 μM (p38a): 74% | % Inhibition at 10 nM (EPHA2): 36% | % Inhibition at 1 μM (EPHA2): 101% | % Inhibition at 10 nM (AKT1): −1% | % Inhibition at 1 μM (AKT1): 0% | % Inhibition at 10 nM (CaMKII (beta)): 1% | % Inhibition at 1 μM (CaMKII (beta)): 2% | % Inhibition at 10 nM (CKIT): 34% | % Inhibition at 1 μM (CKIT): 100% | % Inhibition at 10 nM (AurA): 3% | % Inhibition at 1 μM (AurA): 28% | % Inhibition at 10 nM (CaMKII (gamma)): 6% | % Inhibition at 1 μM (CaMKII (gamma)): 3% | % Inhibition at 10 nM (MAPKAPK3): 1% | % Inhibition at 1 μM (MAPKAPK3): 0% | % Inhibition at 10 nM (GSK3b): 3% | % Inhibition at 1 μM (GSK3b): 2%

COCCOCCOCCNC(=O)OCCN1CCN(c2cc(Nc3ncc(C(=O)Nc4c(C)cccc4Cl)s3)nc(C)n2)CC1 [mPEG3-NHCOO-Dasatinib]
% Inhibition at 10 nM (SRC): 99% | % Inhibition at 1 μM (SRC): 99% | % Inhibition at 10 nM (AKT3): 0% | % Inhibition at 1 μM (AKT3): −1% | % Inhibition at 10 nM (PKD2): 12% | % Inhibition at 1 μM (PKD2): −5% | % Inhibition at 10 nM (CHK1): −2% | % Inhibition at 1 μM (CHK1): 0% | % Inhibition at 10 nM (p38a): 6% | % Inhibition at 1 μM (p38a): 81% | % Inhibition at 10 nM (EPHA2): 40% | % Inhibition at 1 μM (EPHA2): 100% | % Inhibition at 10 nM (AKT1): 7% | % Inhibition at 1 μM (AKT1): 0% | % Inhibition at 10 nM (CaMKII (beta)): 1% | % Inhibition at 1 μM (CaMKII (beta)): 2% | % Inhibition at 10 nM (CKIT): 34% | % Inhibition at 1 μM (CKIT): 100% | % Inhibition at 10 nM (AurA): −7% | % Inhibition at 1 μM (AurA): 19% | % Inhibition at 10 nM (CaMKII (gamma)): 2% | % Inhibition at 1 μM (CaMKII (gamma)): 2% | % Inhibition at 10 nM (MAPKAPK3): 5% | % Inhibition at 1 μM (MAPKAPK3): 3% | % Inhibition at 10 nM (GSK3b): 4% | % Inhibition at 1 μM (GSK3b): 1%
